The source of these data is patent publication US20260274794A1, “COMPOUNDS, COMPOSITIONS, AND METHOD OF INHIBITING TAU PROTEIN AND ALPHASYNUCLEIN AGGREGATION” (Purdue Research Foundation, priority 2023, published 2026).

A value given as a limit tells only on which side of the number the result lay.

A short description of this data set: Brain and plasma concentration after administration. It is filed as in vivo. Conditions: 1 mg/kg. The procedure:
For compound 8, the brain concentration and plasma concentration ratio is equal to more than 1 for the 3 time points (0.08, 0.5 and 1 hour) where the compound was detected, which is adequate.

For `O=C(Nc1cccc2[nH]ccc12)c1ccc(F)cc1` [Compound 8, 4-fluoro-N-(1H-indol-4-yl)benzamide], the Half-life result was “presumed to be short” and the “detection of compound over time” value was “not detected beyond the time point of 60 min”. The Kp (brain and plasma, 0.08, 0.5 and 1 hour, read-out: brain concentration and plasma concentration ratio) was greater than 1.
